Test results published in US20100267561A1, “HERBICIDAL PYRIDAZINONE DERIVATIVES” (priority 2007, published 2010).

Tests used:
Test in all cases: Test B pre-/postemergence plant response
Assay type in all cases: in vivo
[1] = system: Italian ryegrass (Lolium multiflorum); details: for Ryegrass, Italian plant response rating: 8 g ai/ha
Procedure, shortened: (§1)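 Seeds were sown and sprayed preemergence, while plants at 2 to 18 cm (1- to 4-leaf stage) got postemergence sprays. Compounds were formulated in a non-phytotoxic solvent mixture with surfactant. After 13 to 15 days in a greenhouse, injury was rated visually against untreated controls, 0 (no effect) to 100 (complete control).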

[2] = system: Russian thistle (Salsola iberica); details: Preemergence
Procedure, shortened: as §1

[3] = system: blackgrass (Alopecurus myosuroides); details: for Blackgrass plant response rating: 8 g ai/ha
Procedure, shortened: as §1

[4] = system: catchweed bedstraw (Galium aparine); details: Preemergence
Procedure, shortened: as §1

[5] = system: common ragweed (Ambrosia elation); details: for Ragweed plant response rating: 8 g ai/ha
Procedure, shortened: as §1

[6] = system: eastern black (E.B.) nightshade (Solanum ptycanthum); details: Preemergence
Procedure, shortened: as §1

[7] = system: giant foxtail (Setaria faberii); details: for Foxtail, Giant plant response rating: 8 g ai/ha
Procedure, shortened: as §1

[8] = system: goosegrass (Eleusine indica); details: for Goosegrass plant response rating: 8 g ai/ha
Procedure, shortened: as §1

[9] = system: johnsongrass (Sorghum halepense); details: for Johnsongrass plant response rating: 8 g ai/ha
Procedure, shortened: as §1

[10] = system: kochia (Kochia scoparia); details: for Kochia plant response rating: 8 g ai/ha
Procedure, shortened: as §1

[11] = system: lambsquarters (Chenopodium album); details: for Lambsquarters plant response rating: 8 g ai/ha
Procedure, shortened: as §1

[12] = system: pigweed (Amaranthus retroflexus); details: for Pigweed plant response rating: 8 g ai/ha
Procedure, shortened: as §1

[13] = system: soybean (Glycine max); details: for Soybean plant response rating: 8 g ai/ha
Procedure, shortened: as §1

[14] = system: woolly cupgrass (Eriochloa villosa); details: for Cupgrass, Woolly plant response rating: 8 g ai/ha
Procedure, shortened: as §1

[15] = Postemergence, 16 g ai/ha, scale 0 to 100
[16] = Postemergence, 31 g ai/ha, scale 0 to 100
[17] = Postemergence, 62 g ai/ha, scale 0 to 100, 0 no effect, 100 complete control
[18] = Preemergence, 16 g ai/ha, scale 0 to 100 (0 no effect, 100 complete control)
[19] = Preemergence, 31 g ai/ha, scale 0 to 100 (0 no effect, 100 complete control)
[20] = Preemergence, 62 g ai/ha, scale 0 to 100
[21] = 16 g ai/ha, scale 0 to 100 (0 no effect, 100 complete control)
[22] = 31 g ai/ha, scale 0 to 100 (0 no effect, 100 complete control)
[23] = Preemergence, 31 g ai/ha, 0 to 100 scale, 0 no effect, 100 complete control

Cc1cc(-c2ccc(Cl)cc2)nn1-c1c(OC(=O)c2ccccc2)cnn(C)c1=O [Compound 48]
Ryegrass, Italian plant response rating ([1]; postemergence, 0-100 scale): 40
Plant response rating, Ryegrass, Italian [1, 15]: 90
Plant response rating, Ryegrass, Italian [1, 16]: 100
Plant response rating, Ryegrass, Italian [1, 17]: 100
Plant response rating, Ryegrass, Italian [1, 18]: 85
Plant response rating, Ryegrass, Italian [1, 19]: 100
Plant response rating, Ryegrass, Italian [1, 20]: 100
Ryegrass, Italian plant response rating ([1]; Preemergence, scale 0 to 100): 85
Plant response rating, Russian Thistle [2, 21]: 0
Plant response rating, Russian Thistle [2, 22]: 0
Plant response rating, Russian Thistle ([2]; 62 g ai/ha, scale 0 to 100): 0
Russian Thistle plant response rating ([2]; 8 g ai/ha, scale 0 to 100): 0
Blackgrass plant response rating ([3]; postemergence, 0-100 scale): 40
Plant response rating, Blackgrass [3, 15]: 85
Plant response rating, Blackgrass [3, 16]: 85
Plant response rating, Blackgrass [3, 17]: 95
Plant response rating, Blackgrass [3, 18]: 90
Plant response rating, Blackgrass [3, 23]: 90
Plant response rating, Blackgrass [3, 20]: 100
Blackgrass plant response rating ([3]; Preemergence, scale 0 to 100): 80
Plant response rating, Galium [4, 21]: 0
Plant response rating, Galium ([4]; 31 g ai/ha, 0 to 100 scale, 0 no effect, 100 complete control): 0
Ragweed plant response rating ([5]; postemergence, 0-100 scale): 0
Plant response rating, Ragweed [5, 15]: 0
Plant response rating, Ragweed [5, 16]: 0
Plant response rating, Ragweed [5, 17]: 0
Plant response rating, Ragweed [5, 18]: 0
Plant response rating, Ragweed [5, 19]: 0
Plant response rating, Ragweed [5, 20]: 0
Ragweed plant response rating ([5]; Preemergence, scale 0 to 100): 0
Plant response rating, Nightshade, E. B. [6, 21]: 0
Plant response rating, Nightshade, E. B. [6, 22]: 0
Plant response rating, Nightshade, E. B. ([6]; 62 g ai/ha, scale 0 to 100): 20
Nightshade, E. B. plant response rating ([6]; 8 g ai/ha, scale 0 to 100): 0
Foxtail, Giant plant response rating ([7]; postemergence, 0-100 scale): 85
Plant response rating, Foxtail, Giant [7, 15]: 95
Plant response rating, Foxtail, Giant [7, 16]: 100
Plant response rating, Foxtail, Giant [7, 17]: 100
Plant response rating, Foxtail, Giant [7, 18]: 0
Plant response rating, Foxtail, Giant [7, 23]: 0
Plant response rating, Foxtail, Giant [7, 20]: 0
Foxtail, Giant plant response rating ([7]; Preemergence, scale 0 to 100): 0
Goosegrass plant response rating ([8]; postemergence, 0-100 scale): 15
Plant response rating, Goosegrass [8, 15]: 65
Plant response rating, Goosegrass [8, 16]: 75
Plant response rating, Goosegrass [8, 17]: 95
Plant response rating, Goosegrass [8, 18]: 0
Plant response rating, Goosegrass [8, 23]: 0
Plant response rating, Goosegrass [8, 20]: 20
Goosegrass plant response rating ([8]; Preemergence, scale 0 to 100): 0
Johnsongrass plant response rating ([9]; postemergence, 0-100 scale): 65
Plant response rating, Johnsongrass [9, 15]: 75
Plant response rating, Johnsongrass [9, 16]: 100
Plant response rating, Johnsongrass [9, 17]: 100
Plant response rating, Johnsongrass [9, 18]: 60
Plant response rating, Johnsongrass [9, 23]: 75
Plant response rating, Johnsongrass [9, 20]: 80
Johnsongrass plant response rating ([9]; Preemergence, scale 0 to 100): 40
Kochia plant response rating ([10]; postemergence, 0-100 scale): 0
Plant response rating, Kochia [10, 15]: 0
Plant response rating, Kochia [10, 16]: 0
Plant response rating, Kochia [10, 17]: 0
Plant response rating, Kochia [10, 18]: 0
Plant response rating, Kochia [10, 23]: 0
Plant response rating, Kochia [10, 20]: 0
Kochia plant response rating ([10]; Preemergence, scale 0 to 100): 0
Lambsquarters plant response rating ([11]; postemergence, 0-100 scale): 0
Plant response rating, Lambsquarters [11, 15]: 0
Plant response rating, Lambsquarters [11, 16]: 0
Plant response rating, Lambsquarters [11, 17]: 0
Plant response rating, Lambsquarters [11, 18]: 0
Plant response rating, Lambsquarters [11, 23]: 0
Plant response rating, Lambsquarters [11, 20]: 0
Lambsquarters plant response rating ([11]; Preemergence, scale 0 to 100): 0
Pigweed plant response rating ([12]; postemergence, 0-100 scale): 0
Plant response rating, Pigweed [12, 15]: 0
Plant response rating, Pigweed [12, 16]: 0
Plant response rating, Pigweed [12, 17]: 0
Plant response rating, Pigweed [12, 18]: 0
Plant response rating, Pigweed [12, 19]: 0
Plant response rating, Pigweed [12, 20]: 0
Pigweed plant response rating ([12]; Preemergence, scale 0 to 100): 0
Soybean plant response rating ([13]; postemergence, 0-100 scale): 0
Plant response rating, Soybean [13, 15]: 0
Plant response rating, Soybean [13, 16]: 0
Plant response rating, Soybean [13, 17]: 0
Plant response rating, Soybean [13, 18]: 0
Plant response rating, Soybean [13, 19]: 0
Plant response rating, Soybean [13, 20]: 0
Soybean plant response rating ([13]; Preemergence, scale 0 to 100): 0
Cupgrass, Woolly plant response rating ([14]; postemergence, 0-100 scale): 75
Plant response rating, Cupgrass, Woolly [14, 15]: 85
Plant response rating, Cupgrass, Woolly [14, 16]: 100
Plant response rating, Cupgrass, Woolly [14, 17]: 100
Plant response rating, Cupgrass, Woolly [14, 18]: 0
Plant response rating, Cupgrass, Woolly [14, 23]: 0
Plant response rating, Cupgrass, Woolly [14, 20]: 0
Cupgrass, Woolly plant response rating ([14]; Preemergence, scale 0 to 100): 0
